Source: patent US9585875B2, “TRPM8 antagonists” (Dompé S.P.A., priority 2011, dated 2017)

Tests used:
Plasma Protein Binding [1] = type: in vitro ADME; conditions: human
CYP 2C19 = CYP 2C19 (Homo sapiens, UniProt P33261); test: CYP inhibition; type: in vitro ADME
Plasma stability [2] = type: in vitro ADME; conditions: rat
Plasma Protein Binding [3] = type: in vitro ADME; conditions: rat
[4] = target: T1, human Adrenergic β1 Receptor (Homo sapiens, UniProt P08588); test: Radioligand binding assay; conditions: read-out: percentage of control binding value (% B)
T1 construct: expressed in transfected cells; host or cells: HEK293 or CHO
Protocol: (§1) The objective of this study was to evaluate the in vitro effects of compounds 10 and 45 on cloned human GPCRs (G-protein coupled receptors) expressed in HEK293 or CHO cells using radioligand binding assays (compound concentration=10 μM).
(§2) Three replicates were performed for each experiment.
(§3) For each assay a concentration-response curve of the appropriate reference compound was performed in each experiment. The sample radioactivity content was measured after the addition of the scintillation cocktail Microscint 20 (PerkinElmer), by a microplate scintillation Beta-counter TopCount NXT (PerkinElmer). The atomic disintegrations per minutes evaluated with the beta counter were about 15 times higher than those found using the gamma counter. Data are expressed as percentage of control binding value (% B) and test compound inhibition was considered significant when % B was <75% at 10 μM.

[5] = target: T2, human Cannabinoid CB2 Receptor (Homo sapiens, UniProt P34972); test: Radioligand binding assay; conditions: read-out: percentage of control binding value (% B)
T2 construct: expressed in transfected cells; host or cells: HEK293 or CHO
Protocol: as §1, §2, §3

[6] = target: T3, human Bradykinin B1 Receptor (Homo sapiens, UniProt P46663); test: Radioligand binding assay; conditions: read-out: percentage of control binding value (% B)
T3 construct: expressed in transfected cells; host or cells: HEK293 or CHO
Protocol: as §1, §2, §3

[7] = target: T4, human Histamine H1 Receptor (Homo sapiens, UniProt P35367); test: Radioligand binding assay; conditions: read-out: percentage of control binding value (% B)
T4 construct: expressed in transfected cells; host or cells: HEK293 or CHO
Protocol: as §1, §2, §3

[8] = target: T5, human Adrenergic α1A Receptor (Homo sapiens, UniProt P35348); test: Radioligand binding assay; conditions: read-out: percentage of control binding value (% B)
T5 construct: expressed in transfected cells; host or cells: HEK293 or CHO
Protocol: as §1, §2, §3

[9] = target: T6, human Serotoninergic 5-HT1A Receptor (Homo sapiens, UniProt P08908); test: Radioligand binding assay; conditions: read-out: percentage of control binding value (% B)
T6 construct: expressed in transfected cells; host or cells: HEK293 or CHO
Protocol: as §1, §2, §3

[10] = target: T7, human Muscarinic M2 Receptor (Homo sapiens, UniProt P08172); test: Radioligand binding assay; conditions: read-out: percentage of control binding value (% B)
T7 construct: expressed in transfected cells; host or cells: HEK293 or CHO
Protocol: as §1, §2, §3

[11] = target: T8, human Adrenergic α2A Receptor (Homo sapiens, UniProt P08913); test: Radioligand binding assay; conditions: read-out: percentage of control binding value (% B)
T8 construct: expressed in transfected cells; host or cells: HEK293 or CHO
Protocol: as §1, §2, §3

[12] = target: T9, human Dopamine D3 Receptor (Homo sapiens, UniProt P35462); test: Radioligand binding assay; conditions: read-out: percentage of control binding value (% B)
T9 construct: expressed in transfected cells; host or cells: HEK293 or CHO
Protocol: as §1, §2, §3

[13] = target: T10, human Histamine H2 Receptor (Homo sapiens, UniProt P25021); test: Radioligand binding assay; conditions: read-out: percentage of control binding value (% B)
T10 construct: expressed in transfected cells; host or cells: HEK293 or CHO
Protocol: as §1, §2, §3

[14] = target: T11, human Dopamine D2S Receptor (Homo sapiens, UniProt P14416); test: Radioligand binding assay; conditions: read-out: percentage of control binding value (% B)
T11 construct: expressed in transfected cells; host or cells: HEK293 or CHO
Protocol: as §1, §2, §3

[15] = target: T12, human Muscarinic M3 Receptor (Homo sapiens, UniProt P20309); test: Radioligand binding assay; conditions: read-out: percentage of control binding value (% B)
T12 construct: expressed in transfected cells; host or cells: HEK293 or CHO
Protocol: as §1, §2, §3

[16] = target: T13, human Adrenergic β2 Receptor (Homo sapiens, UniProt P07550); test: Radioligand binding assay; conditions: read-out: percentage of control binding value (% B)
T13 construct: expressed in transfected cells; host or cells: HEK293 or CHO
Protocol: as §1, §2, §3

TRPV4 = TRPV4 (Homo sapiens, UniProt Q9HBA0); test: Calcium influx counterassay, agonist GSK1016790A; type: cell-based; conditions: 10 μM GSK1016790A = 100%, read-out: Normalized % inhibition (TRPV4); for inhibition at 1 µM: Test Conc. 1 uM; for inhibition at 10 µM: Test Conc. 10 uM
Protocol: In parallel, the ability of each test compound to act as an antagonist of TRPV4 was evaluated with a calcium influx assay.

Plasma stability [17] = type: in vitro ADME; conditions: human
hERG channel = hERG channel (Homo sapiens, UniProt Q12809); test: hERG binding
CYP 2C9 = CYP 2C9 (Homo sapiens, UniProt P11712); test: CYP inhibition; type: in vitro ADME
Microsome stability [18] = type: in vitro ADME; conditions: human
Microsome stability [19] = type: in vitro ADME; conditions: rat
Female rats = test: Isovolumetric bladder model; type: in vivo, rat
Protocol: Female rats were anesthetized with urethane. Ureters were ligated and sectioned. A catheter was inserted through the urinary meatus into the bladder before urethral ligature. […] 10 or 45 or with 100 μL of vehicle, then with 100 μL of saline every 5 min until the occurrence of rhythmic bladder contraction (RBC). A maximal volume of 3 mL was infused. The intravesical pressure was followed during 1 h30 after RBC appearance. For each group, Threshold Volume (TV), Micturition Frequency (MF) and Amplitude of Micturition (AM) were measured during the whole period. […] No effect on the total MF (measured during 90 min) was observed.

[20] = intravesical, 3 times 100 μL containing 0.1 mg

Sequence of TRPV4 (Q9HBA0 whole entry, species assumed): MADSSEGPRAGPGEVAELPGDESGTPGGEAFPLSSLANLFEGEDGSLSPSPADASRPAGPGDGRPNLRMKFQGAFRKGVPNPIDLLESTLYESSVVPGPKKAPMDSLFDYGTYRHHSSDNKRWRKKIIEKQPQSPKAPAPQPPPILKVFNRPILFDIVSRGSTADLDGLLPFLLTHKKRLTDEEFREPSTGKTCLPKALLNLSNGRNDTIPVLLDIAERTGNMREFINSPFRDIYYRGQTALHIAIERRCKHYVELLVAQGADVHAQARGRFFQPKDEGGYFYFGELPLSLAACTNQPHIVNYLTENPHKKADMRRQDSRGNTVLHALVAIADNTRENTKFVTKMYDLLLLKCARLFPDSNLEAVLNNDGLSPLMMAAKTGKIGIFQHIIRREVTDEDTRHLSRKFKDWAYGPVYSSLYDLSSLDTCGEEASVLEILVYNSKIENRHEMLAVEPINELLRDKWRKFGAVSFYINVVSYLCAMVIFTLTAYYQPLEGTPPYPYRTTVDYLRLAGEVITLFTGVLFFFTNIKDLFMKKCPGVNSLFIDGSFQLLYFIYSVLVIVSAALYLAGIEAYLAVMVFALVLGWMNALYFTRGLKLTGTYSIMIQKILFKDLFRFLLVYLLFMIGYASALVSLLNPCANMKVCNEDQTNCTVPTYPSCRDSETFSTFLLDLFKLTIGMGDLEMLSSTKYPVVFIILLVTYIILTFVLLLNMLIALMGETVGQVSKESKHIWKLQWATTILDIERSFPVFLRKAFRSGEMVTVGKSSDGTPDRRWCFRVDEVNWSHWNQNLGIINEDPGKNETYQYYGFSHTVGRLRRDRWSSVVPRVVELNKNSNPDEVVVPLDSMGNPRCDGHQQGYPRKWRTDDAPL
T7 sequence (P08172 whole entry): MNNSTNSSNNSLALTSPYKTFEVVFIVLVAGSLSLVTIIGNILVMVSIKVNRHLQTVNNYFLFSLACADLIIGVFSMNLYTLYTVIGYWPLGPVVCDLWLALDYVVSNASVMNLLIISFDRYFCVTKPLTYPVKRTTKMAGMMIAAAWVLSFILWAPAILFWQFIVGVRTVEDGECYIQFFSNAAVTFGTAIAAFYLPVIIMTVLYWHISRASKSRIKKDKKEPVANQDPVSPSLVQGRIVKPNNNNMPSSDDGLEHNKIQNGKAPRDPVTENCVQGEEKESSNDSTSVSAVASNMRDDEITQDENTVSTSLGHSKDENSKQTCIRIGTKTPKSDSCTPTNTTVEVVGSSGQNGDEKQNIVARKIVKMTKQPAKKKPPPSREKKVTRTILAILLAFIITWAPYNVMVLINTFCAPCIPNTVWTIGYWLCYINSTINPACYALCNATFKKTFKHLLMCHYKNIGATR
T12 sequence (P20309 whole entry): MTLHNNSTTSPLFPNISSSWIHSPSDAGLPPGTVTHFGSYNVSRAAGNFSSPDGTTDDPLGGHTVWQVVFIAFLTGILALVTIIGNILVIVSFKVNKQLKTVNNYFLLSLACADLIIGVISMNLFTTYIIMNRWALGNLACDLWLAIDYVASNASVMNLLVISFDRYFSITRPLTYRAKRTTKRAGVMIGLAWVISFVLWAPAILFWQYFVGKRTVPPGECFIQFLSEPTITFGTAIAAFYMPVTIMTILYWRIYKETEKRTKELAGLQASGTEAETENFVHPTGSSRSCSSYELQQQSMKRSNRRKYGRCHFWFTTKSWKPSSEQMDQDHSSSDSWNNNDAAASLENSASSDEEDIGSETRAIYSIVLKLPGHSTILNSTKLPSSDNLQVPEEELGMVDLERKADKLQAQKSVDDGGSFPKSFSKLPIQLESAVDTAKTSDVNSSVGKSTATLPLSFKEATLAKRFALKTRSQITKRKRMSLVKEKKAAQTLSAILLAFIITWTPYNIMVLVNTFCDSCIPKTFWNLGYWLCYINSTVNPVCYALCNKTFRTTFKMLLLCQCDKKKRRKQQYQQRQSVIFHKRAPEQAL
T10 sequence (P25021 whole entry): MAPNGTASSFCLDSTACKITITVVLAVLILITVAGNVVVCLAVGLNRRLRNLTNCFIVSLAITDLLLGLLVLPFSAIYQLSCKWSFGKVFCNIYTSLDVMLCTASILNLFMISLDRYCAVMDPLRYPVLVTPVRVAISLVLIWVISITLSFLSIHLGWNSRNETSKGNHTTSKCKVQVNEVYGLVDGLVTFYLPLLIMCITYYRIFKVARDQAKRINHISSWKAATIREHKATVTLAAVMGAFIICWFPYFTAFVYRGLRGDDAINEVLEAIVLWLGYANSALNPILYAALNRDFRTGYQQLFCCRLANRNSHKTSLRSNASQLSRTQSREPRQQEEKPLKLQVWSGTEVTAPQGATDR
T4 sequence (P35367 whole entry): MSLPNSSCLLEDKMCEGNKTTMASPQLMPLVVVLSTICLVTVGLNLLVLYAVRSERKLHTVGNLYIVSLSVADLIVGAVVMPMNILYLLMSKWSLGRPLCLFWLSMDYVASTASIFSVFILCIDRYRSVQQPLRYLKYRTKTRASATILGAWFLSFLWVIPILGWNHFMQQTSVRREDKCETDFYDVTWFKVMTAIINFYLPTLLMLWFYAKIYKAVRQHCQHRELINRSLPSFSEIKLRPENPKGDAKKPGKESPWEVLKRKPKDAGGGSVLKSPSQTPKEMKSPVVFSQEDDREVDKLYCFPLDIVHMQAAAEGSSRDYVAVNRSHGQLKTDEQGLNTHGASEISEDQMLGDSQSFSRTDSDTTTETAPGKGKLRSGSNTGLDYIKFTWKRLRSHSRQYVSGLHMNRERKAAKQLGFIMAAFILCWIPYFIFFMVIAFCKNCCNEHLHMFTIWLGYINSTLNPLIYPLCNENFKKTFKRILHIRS
T11 sequence (P14416 1-414 isoform P14416-2): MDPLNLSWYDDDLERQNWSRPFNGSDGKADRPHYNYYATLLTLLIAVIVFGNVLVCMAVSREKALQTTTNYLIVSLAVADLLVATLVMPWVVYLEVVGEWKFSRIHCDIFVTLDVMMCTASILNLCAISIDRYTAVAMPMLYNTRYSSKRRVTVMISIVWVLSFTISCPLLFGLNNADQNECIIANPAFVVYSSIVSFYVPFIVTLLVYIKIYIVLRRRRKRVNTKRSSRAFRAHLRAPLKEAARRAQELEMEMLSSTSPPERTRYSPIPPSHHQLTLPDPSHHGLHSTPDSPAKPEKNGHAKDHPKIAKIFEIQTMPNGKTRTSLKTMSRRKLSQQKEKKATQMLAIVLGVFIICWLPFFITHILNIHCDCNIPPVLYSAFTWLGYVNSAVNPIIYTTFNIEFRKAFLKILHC
Sequence of CYP 2C9 (P11712 whole entry): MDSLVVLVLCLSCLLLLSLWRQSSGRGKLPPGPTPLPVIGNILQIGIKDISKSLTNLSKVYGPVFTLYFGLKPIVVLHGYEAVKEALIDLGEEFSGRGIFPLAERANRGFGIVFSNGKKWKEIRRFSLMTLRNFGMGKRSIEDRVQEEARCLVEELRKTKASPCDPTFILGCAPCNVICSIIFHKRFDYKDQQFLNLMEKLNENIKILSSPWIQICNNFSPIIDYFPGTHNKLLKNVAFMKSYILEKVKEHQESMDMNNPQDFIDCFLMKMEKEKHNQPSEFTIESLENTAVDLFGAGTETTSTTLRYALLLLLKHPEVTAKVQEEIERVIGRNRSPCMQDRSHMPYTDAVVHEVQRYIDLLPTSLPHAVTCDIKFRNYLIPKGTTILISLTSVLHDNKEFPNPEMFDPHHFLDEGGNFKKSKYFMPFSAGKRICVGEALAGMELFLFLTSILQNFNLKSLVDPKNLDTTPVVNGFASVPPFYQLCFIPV
T1 sequence (P08588 whole entry): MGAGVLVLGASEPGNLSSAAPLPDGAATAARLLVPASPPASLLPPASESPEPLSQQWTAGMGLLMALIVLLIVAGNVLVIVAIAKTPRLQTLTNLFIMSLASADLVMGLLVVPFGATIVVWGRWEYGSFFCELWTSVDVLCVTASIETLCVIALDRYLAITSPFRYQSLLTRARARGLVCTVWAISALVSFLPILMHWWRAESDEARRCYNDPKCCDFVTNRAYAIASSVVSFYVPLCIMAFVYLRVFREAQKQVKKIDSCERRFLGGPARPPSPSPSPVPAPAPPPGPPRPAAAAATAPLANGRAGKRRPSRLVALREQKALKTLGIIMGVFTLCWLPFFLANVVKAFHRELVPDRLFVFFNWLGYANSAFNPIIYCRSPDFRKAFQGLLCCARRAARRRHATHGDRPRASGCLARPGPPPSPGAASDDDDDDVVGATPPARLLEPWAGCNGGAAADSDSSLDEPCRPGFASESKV
T3 sequence (P46663 whole entry): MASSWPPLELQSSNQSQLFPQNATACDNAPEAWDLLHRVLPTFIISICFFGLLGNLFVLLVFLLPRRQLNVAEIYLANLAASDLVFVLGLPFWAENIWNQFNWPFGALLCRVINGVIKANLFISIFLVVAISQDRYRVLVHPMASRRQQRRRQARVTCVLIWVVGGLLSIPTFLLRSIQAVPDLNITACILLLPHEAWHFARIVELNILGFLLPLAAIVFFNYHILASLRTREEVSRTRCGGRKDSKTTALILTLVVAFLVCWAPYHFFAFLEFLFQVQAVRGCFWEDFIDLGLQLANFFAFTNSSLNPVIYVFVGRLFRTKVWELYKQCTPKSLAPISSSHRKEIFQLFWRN
T2 sequence (P34972 whole entry): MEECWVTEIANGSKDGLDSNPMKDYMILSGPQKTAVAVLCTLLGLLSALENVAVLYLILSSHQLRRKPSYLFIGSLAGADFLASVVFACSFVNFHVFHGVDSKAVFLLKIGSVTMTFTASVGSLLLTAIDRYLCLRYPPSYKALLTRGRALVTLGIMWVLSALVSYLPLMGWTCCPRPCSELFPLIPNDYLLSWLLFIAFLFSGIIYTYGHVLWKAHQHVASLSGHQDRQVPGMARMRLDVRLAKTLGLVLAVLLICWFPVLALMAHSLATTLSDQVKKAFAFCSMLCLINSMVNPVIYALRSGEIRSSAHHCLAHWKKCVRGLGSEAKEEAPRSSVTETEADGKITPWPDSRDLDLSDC

In the case of `O=C(O)c1sc(-c2ccc(Cl)cc2)nc1OCc1ccc(Cl)cc1` [Compound 45, 4-[(4-chlorobenzyl)oxy]-2-(4-chlorophenyl)-1,3-thiazole-5-carboxylic acid], the fraction unbound at 10 μM (Plasma Protein Binding [1]) is reported as 0.01, the “CYP (% inhibition) @10 μM, 2C19” value (CYP 2C19) is reported as <5% and the “Plasma stability (% remaining) @10 μM” value (Plasma stability [2]) is reported as 9%. It also gave a fraction unbound at 10 μM (Plasma Protein Binding [3]) of 0.01, a remaining activity at 10 µM [4] of 90.5% and a remaining activity at 10 µM [5] of 86.7%. For the same compound, the remaining activity at 10 µM [6] was 99.6%, the remaining activity at 10 µM [7] was 100% and the remaining activity at 10 µM [8] was 96%. It also gave a remaining activity at 10 µM [9] of 100%, a remaining activity at 10 µM [10] of 96% and a remaining activity at 10 µM [11] of 100%. The remaining activity at 10 µM [12] was 97.2%, the remaining activity at 10 µM [13] was 93.2% and the remaining activity at 10 µM [14] was 100%. The remaining activity at 10 µM [15] was 95%, the remaining activity at 10 µM [16] was 93% and the inhibition at 1 µM (TRPV4) was 5.1%. For the same compound, the inhibition at 10 µM (TRPV4) was 3.1%, the “Plasma stability (% remaining) @10 μM” value (Plasma stability [17]) was 1% and the “hERG binding @10 μM” value (hERG channel) was “No effect”. The “CYP (% inhibition) @10 μM, 2C9” value (CYP 2C9) was <5%.
With `CCOC(=O)c1sc(-c2cccc(F)c2)nc1O` [Compound 10, ethyl 2-(3-fluorophenyl)-4-hydroxy-1,3-thiazole-5-carboxylate] the fraction unbound at 10 μM (Plasma Protein Binding [1]) was 0.03, the “Microsome stability (% remaining) @1 μM” value (Microsome stability [18]) was 5% and the “Microsome stability (% remaining) @1 μM” value (Microsome stability [19]) was 4%. For the same compound, the “reduction of Micturition Frequency (MF)” value (Female rats; 10 mg/kg i.v., first 30 min of the experiment) was “about 36%”, the “continuous rhythmic bladder contraction (RBC) induced by filling with saline” value (Female rats; intravesical route, 2.3 mg/rat) was “completely abolished” and the “Amplitude of Micturition (AM)” value (Female rats; [20]) was “did not change”. For the same compound, the “Threshold Volume (TV)” value (Female rats; [20]) was 1.5 mL, the “effect on the total Micturition Frequency (MF)” value (Female rats; intravesical, 3 times 100 μL containing 0.1 mg, measured during 90 min) was “No effect” and the “CYP (% inhibition) @10 μM, 2C19” value (CYP 2C19) was <5%. It also gave a fraction unbound at 10 μM (Plasma Protein Binding [3]) of 0.02, a remaining activity at 10 µM [4] of 82% and a remaining activity at 10 µM [5] of 102%. For the same compound, the remaining activity at 10 µM [6] was 91%, the remaining activity at 10 µM [7] was 99.3% and the remaining activity at 10 µM [8] was 100%. It also gave a remaining activity at 10 µM [9] of 100%, a remaining activity at 10 µM [10] of 90% and a remaining activity at 10 µM [11] of 100%. It also gave a remaining activity at 10 µM [12] of 87%, a remaining activity at 10 µM [13] of 90% and a remaining activity at 10 µM [14] of 100%. It also gave a remaining activity at 10 µM [15] of 98%, a remaining activity at 10 µM [16] of 88% and an inhibition at 1 µM (TRPV4) of 2%. For the same compound, the inhibition at 10 µM (TRPV4) was 8.9%, the “hERG binding @10 μM” value (hERG channel) was “No effect” and the “CYP (% inhibition) @10 μM, 2C9” value (CYP 2C9) was <5%.
